# Results as given in patent US8609733B2, “Sensory-specific local anesthesia and prolonged duration local anesthesia” (Massachusetts Institute of Technology, priority 2008, dated 2013).
# “And” between values parts separate entries of the source, which are not always exact repeats. Identical values can stand only once.
# Legend:
# Assay type in all cases: in vivo, Sprague-Dawley rats
# sciatic nerve [1] = experiment: Sensory selectivity of sciatic nerve blockade (thermal nociceptive versus motor block); details: for selective thermal nociceptive blockade as compared to motor blockade: in combination with OTAB (Example 3: 100 mM QX-222, 30 mM OTAB)
# Procedure: (§1) Animals were cared for in compliance with protocols approved by the Massachusetts Institute of Technology (MIT) Committee on Animal Care, in conformity with the NIH guidelines for the care and use of laboratory animals (NIH publication #85-23, revised 1985). Rats were anesthetized using isoflurane in oxygen. A 25-gauge needle was introduced posteromedial to the greater trochanter, and 300 μL of the QX-314+/−enhancer solution was injected upon contacting bone. To determine the effect of QX-314 on sensory and motor blockade, animals were injected with QX-314 at different concentrations. To determine the effect of the chemical penetration enhancer (OTAB) on the sensory and motor blockade produced by QX-314, animals were injected with different concentrations of OTAB, with the concentration of QX-314 kept constant at 25 mM.
# (§2) In all experiments, the experimenter was blinded as to what treatment any given rat had received. Presence and extent of nerve blockade was investigated as previously described (Kohane, et al., Anesthesiology, 89:1199-1208 (1998); Padera, et al., Muscle Nerve, 34:747-53 (2006); Kohane, et al., Anesthesiology, 89:119-31 (1998); Masters, et al., Anesthesiology, 79(2):340-346 (1993)). Briefly, thermal nociception of each leg was assessed, with the right (uninjected) leg serving as an untreated control.
# (§3) Thermal nociception was assessed by a modified hotplate test. Hind paws were exposed in sequence (left then right) to a 56° C. hot plate (Model 39D Hot Plate Analgesia Meter, IITC Inc., Woodland Hills, Calif.). The time (latency) until paw withdrawal was measured with a stopwatch.
# (§4) The duration of thermal nociceptive block was calculated as the time required for thermal latency to return to a value of 7 seconds from a higher value. Seven seconds is the midpoint between a baseline thermal latency of approximately 2 seconds in adult rats and a Maximal latency of 12 seconds. Latencies greater than 7 sec were considered to be effective blocks.
# (§5) The rat was held with its posterior placed at a digital balance on which it could bear weight with one hindpaw at a time. The maximum weight that the rat could bear without its ankle touching the balance was measured.
# (§6) Methods were as described in Example 1.
# (§7) To establish that the selective block could be obtained with other local anesthetics, the methods of example 1 were performed using 100 mM QX-222 and 30 mM OTAB, and compared to the results obtained using 100 mM […] and 30 mM OTAB.
# sciatic nerve [2] = experiment: Duration of thermal nociceptive (sensory) block after sciatic nerve injection, modified hotplate test
# Procedure: (§8) Young adult male Sprague-Dawley rats (350-420 g) were obtained from Charles River Laboratories (Wilmington, Mass.) and housed in groups of two per cage on a 6 a.m. to 6 p.m. light/dark cycle. All animals were cared for in accordance with protocols approved institutionally and nationally.
# (§9) QX-314 and octyltriethylammonium bromide (OTAB) (Sigma) solutions were prepared in saline individually and in combination with each enhancer the night before scheduled injections.
# as §1, §2, §3, §4, §6, §7
# sciatic nerve [3] = experiment: Duration of motor block after sciatic nerve injection, extensor postural thrust (EPT)
# Procedure: as §8, §9, §1, §2, §5, §6, §7
# [4] = 25 mM QX-314 co-injected with 5 mM SOS
# [5] = 25 mM QX-314 co-injected with 10 mM SOS
# [6] = 25 mM QX-314 co-injected with 0.5% TWEEN 20
# [7] = QX-314 without CPE, different concentrations, 300 μl
smiles,measurement,setting,value
"Cc1cccc(C)c1NC(=O)C[N+](C)(C)C [QX-222, 2-((2,6-dimethylphenyl)amino)-N,N,N-trimethyl-2-oxoethanaminium]",selective thermal nociceptive blockade as compared to motor blockade,sciatic nerve [1],Comparable selective thermal nociceptive blockade
"CC[N+](CC)(CC)CC(=O)Nc1c(C)cccc1C [QX-314, N-(2,6)dimethylphenylcarbamoylmethyl triethylammonium bromide]",sensory block,sciatic nerve [2]; [4],235 min
same,sensory block,sciatic nerve [2]; [5],870 min
same,sensory DEB (duration of effective block),sciatic nerve [2]; 25 mM QX-314 co-injected with 20 mM OTAB,428 min and 406 min
same,duration of sensory block,sciatic nerve [2]; 25 mM QX-314 co-injected with 30 mM OTAB,450 min
same,median sensory blockade,sciatic nerve [2]; [6],269 min
same,sensory duration of block versus concentration,sciatic nerve [2]; [7],concentration-dependent increase
same,duration of motor block,"sciatic nerve [3]; 25 mM QX-314 alone, 300 μL at the sciatic nerve, rat",165 min
same,motor block,sciatic nerve [3]; [4],0 min
same,motor block,sciatic nerve [3]; [5],532 min
same,motor effect,sciatic nerve [3]; 25 mM QX-314 co-injected with 20 mM or 30 mM OTAB,little or no motor effect
same,median motor blockade,sciatic nerve [3]; [6],0 min
same,motor duration of block versus concentration,sciatic nerve [3]; [7],concentration-dependent increase
same,sensory selectivity,"sciatic nerve [1]; 25 mM QX-314 co-injected with SOS 5, 10, 20, 30 mM",sensory selectivity at all concentrations of SOS
same,sensory specificity,sciatic nerve [1]; 25 mM QX-314 with higher OTAB concentrations (>30 mM),no sensory specificity
same,specificity of block,sciatic nerve [1]; 25 mM QX-314 with higher SOS concentrations (10-30 mM),initially non-specific
same,sensory versus motor block duration,sciatic nerve [1]; 25 mM QX-314 with lower concentrations of OTAB (10-30 mM),"significant increase in sensory block duration, without a corresponding increase in motor block duration"
same,modality specificity,sciatic nerve [1]; QX-314 in the absence of a CPE,no evidence of modality specificity
same,TWEEN 20 concentration of maximum sensory specificity (optimal),sciatic nerve [1]; co-injected with 25 mM QX-314,0.5%
same,selective thermal nociceptive blockade as compared to motor blockade,sciatic nerve [1],Comparable selective thermal nociceptive blockade
same,SOS concentration range with sensory selectivity,sciatic nerve [1]; with 25 mM QX-314,1 to 50 mM
same,optimal OTAB concentration for sensory selectivity,sciatic nerve [1]; with 25 mM QX-314,20 mM
